Results on 19 compounds are retold here after PubChem BioAssay AID256 (DTP/NCI, 2004).

“And” between values parts separate entries of the source, which are not always exact repeats. Equal entries are not always repeated. Toxic doses and inconclusive results are not listed.

This assay deals with CD2F1 mice, L1210 leukemia ip, survival T/C. Nature of the assay: NCI In Vivo Anticancer Drug Screen. Data for tumor model L1210 Leukemia (intraperitoneal) in CD2F1 (CDF1) mice. The settings on record: higher = longer survival. The essentials:
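Activity against a transplanted murine tumor was judged by comparing the compound group with a vehicle group. The outcome in the treated animals was divided by that in the controls.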

Setting [1] is: endpoint: mean survival time, dose: 50.0 mg/kg/injection, schedule: Q01DX009 (ip), vehicle: Klucel (hydroxypropylcellulose) (HPC).
[2] abbreviates: endpoint: mean survival time, dose: 100.0 mg/kg/injection, schedule: Q01DX009 (ip), vehicle: Klucel (hydroxypropylcellulose) (HPC).
Setting [3] is: endpoint: mean survival time, dose: 200.0 mg/kg/injection, schedule: Q01DX009 (ip), vehicle: Klucel (hydroxypropylcellulose) (HPC).
Where [4] appears, read: endpoint: mean survival time, dose: 50.0 mg/kg/injection, schedule: Q01DX009 (ip), vehicle: saline with Tween-80.
The mark [5] stands for this setting: endpoint: mean survival time, dose: 100.0 mg/kg/injection, schedule: Q01DX009 (ip), vehicle: saline with Tween-80.
[6] abbreviates: endpoint: mean survival time, dose: 100.0 mg/kg/injection, schedule: Q04DX003 (ip), vehicle: saline with Tween-80.
[7] abbreviates: endpoint: mean survival time, dose: 200.0 mg/kg/injection, schedule: Q01DX009 (ip), vehicle: saline with Tween-80.
The mark [8] stands for this setting: endpoint: mean survival time, dose: 200.0 mg/kg/injection, schedule: Q04DX003 (ip), vehicle: saline with Tween-80.
Setting [9] is: endpoint: mean survival time, dose: 400.0 mg/kg/injection, schedule: Q01DX009 (ip), vehicle: saline with Tween-80.
The mark [10] stands for this setting: endpoint: mean survival time, dose: 400.0 mg/kg/injection, schedule: Q04DX003 (ip), vehicle: saline with Tween-80.

For the compound `N#Cc1cnc(N)[nH]c1=O`, the T/C under setting [1] was 88 % of control, the T/C under setting [2] is 88 % of control and the T/C under setting [3] was 91 % of control.
Consider `CC(=N\O)/C(C)=N/O.CC(=N\O)/C(C)=N/O.CCCC1CC[N-]CC1.CCCC1CC[N-]CC1.CCCC1CC[N-]CC1.CCCC1CC[N-]CC1.[Cl-].[Cl-].[Cl][Rh][Cl].[Rh+3]`, for which the T/C by setting is: (endpoint: mean survival time, dose: 6.25 mg/kg/injection, schedule: Q01DX009 (ip), vehicle: water) 97 % of control; (endpoint: mean survival time, dose: 6.25 mg/kg/injection, schedule: Q04DX003 (ip), vehicle: water) 86 % of control; (endpoint: mean survival time, dose: 12.5 mg/kg/injection, schedule: Q04DX003 (ip), vehicle: water) 94 % of control; (endpoint: mean survival time, dose: 25.0 mg/kg/injection, schedule: Q01DX009 (ip), vehicle: water) 88 % of control; (endpoint: mean survival time, dose: 25.0 mg/kg/injection, schedule: Q04DX003 (ip), vehicle: water) 86 % of control.
For the compound `CN1CC(CO)C(O)C2c3cccc4[nH]cc(c34)CC21` (configuration not stated), the T/C runs as follows: (endpoint: median survival time, dose: 25.0 mg/kg/injection, schedule: Q04DX003 (ip), vehicle: saline with Tween-80) 100 % of control; (endpoint: median survival time, dose: 50.0 mg/kg/injection, schedule: Q04DX003 (ip), vehicle: saline with Tween-80) 100 % of control; (endpoint: median survival time, dose: 100.0 mg/kg/injection, schedule: Q04DX003 (ip), vehicle: saline with Tween-80) 100 % of control; (endpoint: median survival time, dose: 200.0 mg/kg/injection, schedule: Q04DX003 (ip), vehicle: saline with Tween-80) 100 % of control.
With `[Cl][Pt+2][Cl].[NH-]C1CCCC1.[NH2-]`, the T/C reads like this: (endpoint: mean survival time, dose: 0.39 mg/kg/injection, schedule: Q04DX003 (ip), vehicle: water) 106 % of control; (endpoint: mean survival time, dose: 0.78 mg/kg/injection, schedule: Q04DX003 (ip), vehicle: water) 122 % of control; (endpoint: mean survival time, dose: 3.12 mg/kg/injection, schedule: Q04DX003 (ip), vehicle: saline with Tween-80) 182 % of control; (endpoint: mean survival time, dose: 3.13 mg/kg/injection, schedule: Q04DX003 (ip), vehicle: water) 156 % of control.
Consider `CCOC(C[N+](C)(C)C)OCC`, for which the T/C under setting [4] was 100 % of control and the T/C under setting [5] was 94 % of control.
In the case of `ON(C(=S)Nc1ccccc1)c1ccccc1`, the T/C by setting is: (endpoint: mean survival time, dose: 100.0 mg/kg/injection, schedule: Q01DX001 (ip), vehicle: saline) 93 % of control; (endpoint: mean survival time, dose: 200.0 mg/kg/injection, schedule: Q01DX001 (ip), vehicle: saline) 98 % of control; (endpoint: mean survival time, dose: 400.0 mg/kg/injection, schedule: Q01DX001 (ip), vehicle: saline) 97 % of control.
Consider `CC1(C)C=CC=C(C(=O)O)C=C1`, for which the T/C is, setting by setting: under setting [5], 100 % of control; under setting [6], 98 % of control; under setting [7], 92 % of control; under setting [8], 98 % of control; under setting [9], 89 % of control; under setting [10], 94 % of control.
Regarding `COc1cc2c3c(cccc3c1)C(=O)N(CCN(C)C)C2=O`, the T/C was 98 % of control and 100 % of control (endpoint: mean survival time, dose: 5.0 mg/kg/injection, schedule: Q01DX009 (ip), vehicle: saline with Tween-80); 98 % of control and 102 % of control (endpoint: mean survival time, dose: 10.0 mg/kg/injection, schedule: Q01DX009 (ip), vehicle: saline with Tween-80); 97 % of control and 101 % of control (endpoint: mean survival time, dose: 20.0 mg/kg/injection, schedule: Q01DX009 (ip), vehicle: saline with Tween-80); 100 % of control and 108 % of control (endpoint: mean survival time, dose: 40.0 mg/kg/injection, schedule: Q01DX009 (ip), vehicle: saline with Tween-80); 103 % of control and 110 % of control (endpoint: mean survival time, dose: 80.0 mg/kg/injection, schedule: Q01DX009 (ip), vehicle: saline with Tween-80); 106 % of control (endpoint: mean survival time, dose: 160.0 mg/kg/injection, schedule: Q01DX009 (ip), vehicle: saline with Tween-80).
With `CN(C)c1ccc(OC(=O)c2cc3ccccc3cc2O)cc1`, the T/C was 112 % of control under setting [1], 108 % of control under setting [2] and 101 % of control under setting [3].
Regarding `CC(C)COP(=O)(OCC(C)C)OCC(C)C`, the T/C was 100 % of control under setting [6] and 92 % of control under setting [8].
Regarding `COC1(c2ccccc2)C(c2ccccc2)=CC(=O)/C1=C\c1ccccc1` (configuration not stated), the T/C is, setting by setting: under setting [6], 98 % of control; under setting [8], 91 % of control; under setting [10], 86 % of control.
For `CCOC(=O)COC(CC[P+](c1ccccc1)(c1ccccc1)c1ccccc1)(C(=O)c1ccccc1)c1ccccc1` (configuration not stated), the T/C runs as follows: (endpoint: mean survival time, dose: 5.0 mg/kg/injection, schedule: Q01DX001 (ip), vehicle: saline with Tween-80) 100 % of control; (endpoint: mean survival time, dose: 6.25 mg/kg/injection, schedule: Q01DX001 (ip), vehicle: saline with Tween-80) 102 % of control; (endpoint: mean survival time, dose: 12.5 mg/kg/injection, schedule: Q01DX001 (ip), vehicle: saline with Tween-80) 97 % of control; (endpoint: mean survival time, dose: 20.0 mg/kg/injection, schedule: Q01DX001 (ip), vehicle: saline with Tween-80) 109 % of control; (endpoint: mean survival time, dose: 25.0 mg/kg/injection, schedule: Q01DX001 (ip), vehicle: saline with Tween-80) 108 % of control.
In the case of `Nc1ncnc(N)c1NC(=O)c1cccc(Cl)c1`, the T/C runs as follows: (endpoint: mean survival time, dose: 25.0 mg/kg/injection, schedule: Q04DX003 (ip), vehicle: saline with Tween-80) 100 % of control; (endpoint: mean survival time, dose: 50.0 mg/kg/injection, schedule: Q04DX003 (ip), vehicle: saline with Tween-80) 100 % of control; under setting [6], 118 % of control and 108 % of control.
Take `Cc1cccc(-c2cc(Cl)c3cc(S(=O)(=O)F)ccc3n2)c1`: the T/C by setting is: under setting [5], 94 % of control; under setting [6], 104 % of control; under setting [7], 93 % of control; under setting [8], 101 % of control; under setting [9], 100 % of control; under setting [10], 92 % of control.
As for `CC12CC1(C)C(=O)OC2=O` (configuration not stated), the T/C is, setting by setting: under setting [4], 96 % of control; under setting [5], 95 % of control; under setting [7], 96 % of control.
As for `Cc1cc(N)ccc1N(c1c(Cl)c(Cl)c(NS(=O)(=O)c2ccccc2)c(Cl)c1Cl)S(=O)(=O)c1ccccc1`, the T/C is 95 % of control (endpoint: mean survival time, dose: 100.0 mg/kg/injection, schedule: Q04DX003 (ip), vehicle: Klucel (hydroxypropylcellulose) (HPC)); 95 % of control (endpoint: mean survival time, dose: 200.0 mg/kg/injection, schedule: Q04DX003 (ip), vehicle: Klucel (hydroxypropylcellulose) (HPC)); 95 % of control (endpoint: mean survival time, dose: 400.0 mg/kg/injection, schedule: Q04DX003 (ip), vehicle: Klucel (hydroxypropylcellulose) (HPC)).
Consider `O=C(CN1CCCCC1Cl)c1ccccc1` (configuration not stated), for which the T/C runs as follows: (endpoint: mean survival time, dose: 25.0 mg/kg/injection, schedule: Q01DX009 (ip), vehicle: saline with Tween-80) 102 % of control; under setting [4], 96 % of control; under setting [5], 102 % of control.
Turning to `CCCCOC(=O)CCCCC(=O)OCCCC`, the T/C was 96 % of control under setting [5]; 97 % of control under setting [6]; 105 % of control under setting [7]; 98 % of control under setting [8]; 110 % of control under setting [9]; 97 % of control under setting [10].
As to `N#CN=C([S-])[S-].N#CN=C([S-])[S-].[Cu]`, the T/C reads like this: (endpoint: mean survival time, dose: 12.5 mg/kg/injection, schedule: Q04DX003 (ip), vehicle: acetone) 93 % of control; (endpoint: mean survival time, dose: 25.0 mg/kg/injection, schedule: Q04DX003 (ip), vehicle: acetone) 94 % of control.
